Values joined by “and” are separate entries in the source; they are usually repeats but may differ in a detail not shown here. Equal entries are not always repeated.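 Five concentrations, 48 hours, 96-well plates. GI50 = concentration required for 50% inhibition of growth. TGI: total growth inhibition.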
System: RPMI-8226 leukemia
Assay: NCI tumour cell line growth inhibition, 48 h

| SMILES | TGI |
| --- | --- |
| O=c1cccc(Cl)[nH]1 | > 100 µM |
| Cc1ccc(S(=O)C(C)C(Cl)c2ccccc2)cc1 (centres undefined) | > 100 µM |
| CN1CCc2ccccc2C(C(=O)c2ccc3c(c2)OCO3)C1=O (centres undefined) | > 100 µM |
| Cc1cc(Cl)ccc1NC(=O)C1C(=O)N(c2ccc(Cl)cc2C)C(=O)/C1=N\NC(N)=S (centres undefined) | > 100 µM |
| COc1ccc(Br)c(C(=O)N2CCc3ccccc32)c1N | > 100 µM |
| COc1ccc(C)cc1NC(=S)C#N | > 100 µM |
| Cc1ccc2ccc(-c3ccccc3)c3c2c1C(=O)c1ccccc1C3=O | > 100 µM |
| OCC(O)C(O)C(O)c1nn(-c2ccc(F)cc2)c2nc3cc(Cl)c(Cl)cc3nc12 (centres undefined) | > 100 µM |
| COc1ccc(C2Cc3cc(OC)c(OC)c(OC)c3C2)cc1 (centres undefined) | 98.9 µM |

System: COLO 205 colon
Assay: NCI tumour cell line growth inhibition, 48 h

| SMILES | GI50 | TGI |
| --- | --- | --- |
| CS(=O)(=O)Nc1cc(-c2ccc3ncnc(Nc4cccc(Cl)c4)c3c2)cnc1Cl | 0.371 µM | 1.8 µM |
| CC1(C)OC(=O)C(=C2CCC(C(=O)Nc3cccc(C(F)(F)F)c3)N2)C(=O)O1 (centres undefined) |  | > 100 µM |
| CCN(c1ccccc1)[C@H]1C(=O)N(c2ccc([N+](=O)[O-])cc2)[C@H]1c1ccc(OC)cc1 |  | > 100 µM |
| COc1ccc(/C=C\c2cc(OC)c(OC)c(OC)c2)cc1 |  | 11.5 µM |
| COc1cc2cc(Oc3cccc(NC(=O)Nc4cc(C(F)(F)F)cc(C(F)(F)F)c4)c3)c(C)nc2cc1OC | 1.79 µM | 3.58 µM |
| CCOC(=O)[C@@H]1CSC(CC)=C(C(=O)O)N1 | > 100 µM | > 100 µM |
| C[C@H]1CC[P+](C)(c2ccccc2)C1 (some centres undefined) |  | > 100 µM |
| C=C1CC[C@H]2C(C)=CC[C@H]3C(=C)C(=O)O[C@@H]3[C@@H]12 |  | > 100 µM |
| COc1cc(OC)c2c(=O)c3cccc([N+](=O)[O-])c3n(C)c2c1 |  | > 100 µM |
| COc1cccc(/C=N\NC(=O)C(C)SC(C)C(=O)N/N=C/c2cccc(OC)c2)c1 (centres undefined) |  | > 63.9 µM |
| O=[N+]([O-])/C=C/c1ccc(Cl)cc1[N+](=O)[O-] | 1.81 µM | 3.47 µM |
| COc1ccc(-c2csc(Nc3cccc(-c4csc(C)n4)c3)n2)cc1 | 0.636 µM | > 26.1 µM |
| COc1cc(/C=C2\SC(N3CCCCC3)=NC2=O)ccc1OCCCCCCOc1ccc(/C=C2\SC(N3CCCCC3)=NC2=O)cc1OC | 19.9 µM | > 100 µM |
| CCCCCCCCCCCCCCCC[n+]1ccccc1 | 0.255 µM and 0.495 µM | 0.702 µM and 1.85 µM |
| COc1cc2c3c(n(CCCNCCCNCCCN)c(=O)c2cc1OC)-c1cc2c(cc1C3=O)OCO2 | 46.1 µM | > 100 µM |
| COc1ccc(-c2c(N)noc2-c2cc(OC)c3c(c2)OCCO3)cc1 | < 0.01 µM | 0.0398 µM |
| O=C1CCC(=O)N1Sc1ccccc1 |  | > 100 µM |
| CCOC(=O)c1c(NC(=O)c2ccc(Cl)cc2)sc2c(CN(C)C)c(O)ccc12 | 1.87 µM | 4.1 µM |

| SMILES | GI50 | TGI |
| --- | --- | --- |
| O=C(/C=C/c1ccccc1O)c1ccccc1Cl |  | > 100 µM |
| CCCCC1(C(NC(=O)c2ccccc2Cl)c2ccncc2)C(=O)N(c2ccccc2)N(c2ccccc2)C1=O (centres undefined) |  | 52.6 µM |
| COc1ccc(/C=N/NS(=O)(=O)c2ccccc2)cc1 |  | > 100 µM |
| COc1ccccc1NC(=O)C1=C(C)NC(C)=C(C(=O)Nc2ccccc2OC)C1c1ccco1 |  | 23 µM |
| Cc1ccc(OC(=O)N2C/C(=C\c3ccccc3)C(=O)/C(=C/c3ccccc3)C2)cc1 |  | > 100 µM |
| O=C(O)CCCCC1CCSS1 (centres undefined) |  | > 100 µM |
| O=C1C(=O)C2(CC1S(=O)(=O)c1ccccc1)c1ccccc1-c1ccccc12 (centres undefined) |  | 26.1 µM |
| O=c1oc2c3ccc4ccccc4c3n(CCN3CCCCC3)c2c2ccccc12 |  | > 100 µM |
| O=c1cccc(Cl)[nH]1 |  | > 100 µM |
| Cc1ccc(S(=O)C(C)C(Cl)c2ccccc2)cc1 (centres undefined) |  | > 100 µM |
| CN1CCc2ccccc2C(C(=O)c2ccc3c(c2)OCO3)C1=O (centres undefined) |  | > 100 µM |
| Cc1cc(Cl)ccc1NC(=O)C1C(=O)N(c2ccc(Cl)cc2C)C(=O)/C1=N\NC(N)=S (centres undefined) |  | > 100 µM |
| COc1ccc(Br)c(C(=O)N2CCc3ccccc32)c1N |  | > 100 µM |
| COc1ccc(C)cc1NC(=S)C#N |  | > 100 µM |
| Cc1ccc2ccc(-c3ccccc3)c3c2c1C(=O)c1ccccc1C3=O |  | > 100 µM |
| OCC(O)C(O)C(O)c1nn(-c2ccc(F)cc2)c2nc3cc(Cl)c(Cl)cc3nc12 (centres undefined) |  | > 100 µM |
| COc1ccc(C2Cc3cc(OC)c(OC)c(OC)c3C2)cc1 (centres undefined) |  | > 100 µM |

Reference: PubChem BioAssay (NCI)
